Key:
[1] = Bioavailability in immunocompromized children at […], po administered every 12 hrs; assay type: ADME, organism-based; details: human, in vivo
[2] = Bioavailability in children and young patient with malignancy; assay type: ADME, organism-based; details: human, in vivo

Nc1nc2c(ncn2COCCO)c(=O)[nH]1 [ACYCLOVIR]
bioavailability [1]: 48%
bioavailability [2]: 60%

Reference: ChEMBL document CHEMBL1649513, “Population pharmacokinetics of acyclovir in children and young people with malignancy after administration of intravenous acyclovir or oral valacyclovir” (Antimicrob Agents Chemother, 2009)
